Test results taken from patent US20130064794A1, “Substituted Carbonyloxymethylphosphoramidate Compounds and Pharmaceutical Compositions for the Treatment of Viral Infections” (IDENIX PHARMACEUTICALS, INC., priority 2011, published 2013).

How the values were obtained:
[1] = Stability in simulated gastric fluid (SGF); type: in vitro ADME; conditions: 100 μM, 2 hours at 37° C.
Procedure: (§1) Simulated gastric and intestinal fluids containing pepsin and pancreatin respectively were prepared according to the U.S. Pharmacopoeia USP291 procedure (www.pharmacopeia.cn/v29240/usp29nf24s0_ris1s126.html). Test compound (final concentration 100 μM) was incubated in duplicate in the appropriate fluid for 2 hours at 37° C. The samples were quenched with 200 μl cold acetonitrile, vortexed for 30 seconds and then centrifuged at 16,100 g for 10 min. The supernatants were analyzed by HPLC on a C-18 column with UV detection at 252 nm. The time 0 samples were prepared by adding SGF or SIF fluid to the quenching solvent followed by the test compound. Stability of the compound was determined by peak area the test compound after incubation and calculated as percent of the peak area observed at time zero.

[2] = Stability in simulated intestinal fluid (SIF); type: in vitro ADME; conditions: 100 μM, 2 hours at 37° C.
Procedure: as §1

[3] = Stability in HIS9 (intestinal S9); type: in vitro ADME, human; conditions: 10 μM, 1.0 mg/mL protein, NADPH, 60 min
Procedure: HLM=Human liver microsome; HIM=Human intestinal microsome; HLS9=Human liver S9 fraction; HIS9=Human […] S9 fraction; SGF=Simulated gastric fluid; SIF=Simulated intestinal fluid.
Stability of Compound 1 and its diastereomer were determined in subcellular fractions (microsomes and S9) of human liver and intestine in duplicate for each matrix. Pooled liver and intestinal microsomal, intestinal and liver S9 proteins (1.0 mg/mL), suspended in incubation buffer (100 mM potassium phosphate, pH 7.4, 5 mM MgCl2, and 0.1 mM EDTA), were preincubated for 5 min at 37° C. with 10 μM of a test compound from a 10 mM stock solution in DMSO (final DMSO concentration was 0.1%); the reaction was initiated by the addition of NADPH (3 mM final concentration). At specific times (0 and 60 min), 0.1 mL samples were taken and the reaction terminated by the addition of 4 volumes of stop solution (acetonitrile with 500 ng/mL carbutamide as an internal standard). The samples were vortexed for 30 sec and then centrifuged at 16,000 g for 10 min. 100 μL of supernatants were transferred to 96 deep-well plates preloaded with 100 μL distilled water and analyzed after mixing by LC-MS/MS. The MS peak area ratio of the test compound versus the internal standard was calculated and percent unchanged test compound over 60 minutes was calculated using this ratio.

[4] = tested on: Huh-7 cells; test: Release of active metabolite in Huh-7 cells; type: in vitro ADME; conditions: intracellular triphosphate, 10 μM test compound
Procedure: Huh-7 cells were plated in 1 mL culture medium (DMEM, containing glucose, L-glutamine and sodium pyruvate, 10% FBS, 100 IU/mL penicillin, 100 μg/mL streptomycin, 2 mM GlutaMAX, 1% MEM non-essential amino acids) at the concentration 0.8, 0.4 and 0.2 million cells per well on 6 well plates for 24, 48 and 72 hr treatment, respectively. Plated cells were incubated overnight at 37° C. in an incubator.
The following morning the test compound was diluted to 20 μM from a stock solution in DMSO in fresh culture medium pre-warmed to 37° C. and 1 mL of the solution/well was added to cells. A final medium volume per well was 2.0 mL, the test compound concentration in well was 10 μM and final DMSO concentration was 0.1%.
After 24, 48 or 72 hr, the medium was carefully removed and cell monolayers were washed twice with 2 mL ice-cold PBS per well. Following the last wash, all PBS was carefully removed and 1.0 mL of extraction solution (ice-cold 70% methanol) added. The plate was tightly covered with Parafilm, plastic plate cover and Parafilm again and an intracellular content was extracted at −20° C. for 24 hr.
After 24 hr extracts were transferred into polypropylene microfuge tubes and dry on a refrigerated centrivap concentrator. Dry residues were reconstituted in 250 μL of HPLC-grade water and centrifuged at 16,000×g for 10 min. […]

[5] = Plasma and liver pharmacokinetics following a single oral dose in CD-1 mice; type: in vivo; conditions: single oral dose in PEG 200, value at 1 μmol/kg; for Ms 2′-F, 2′-MeGTP AUC: mouse liver; for Ms Plasma 2′-F, 2′-MeG AUC / Ms Plasma 2′-F, 2′-MeG Cmax: mouse plasma
Procedure: A single oral dose of Compound 1 at 25 mg/kg in PEG 200 (dose volume 5 mL/kg) was administered to nine CD-1 male mice. Five untreated animals were used for the collection of control plasma and liver. Terminal plasma and liver samples were collected from three animals per time point at 4, 12 and 24 hours post dose. Liver specimens were collected from all animals immediately after the incision. Freezing forceps stored in liquid nitrogen were used to freeze the liver before excision.
Plasma samples were analyzed for 2′-methylguanosine (2′-MeG) by LC-MS/MS. The internal standard (1S) was 2′-MeG-D3. For protein precipitation and extraction, each plasma sample (50 μL) was treated with 500 μL of 0.2% formic acid in acetonitrile and 20 μL of the internal standard working solution. After vortexing and centrifugation, 500 μL of the sample extracts were transferred to a new plate, dried under N2 at ˜28° C. and reconstituted with 75 μL of 0.2% FA in water. The extracts were chromatographed on an Aquasil C18 column using a gradient system of 0.2% formic acid in water and acetonitrile. The analytes were detected and quantified by tandem mass spectrometry in positive ion mode on an MDS Sciex API5000 equipped with a Turbo Ionspray® interface. The calibration range was 0.500 (LLOQ) to 200 ng/mL in mouse plasma. The corresponding range for molar units is 1.68 to 673 pmol/mL.
Liver samples were analyzed for the active species 2′-methylguanosine triphosphate (2′-MeGTP) by LC-MS/MS. 2′-F, 2′-MeGTP levels were assayed by homogenizing (on ice) a known weight of mouse liver with 4× volume of 0.95 M trichloroacetic acid (TCA). Internal standard solution was added to the homogenate followed by neutralization with 20% ammonium hydroxide solution and addition of 500 μL 1% formic acid. The tissue samples were extracted by weak anion exchange solid phase extraction (SPE). Post extraction, the eluates were evaporated under nitrogen, followed by reconstitution before injection onto the LC-MS/MS system. The samples were chromatographed on a Luna NH2 column using a gradient system of ammonium acetate (1 mM to 20 mM and pH 8.0 to pH 10.0) in water and acetonitrile (70:30). The analyte was detected and quantified by tandem mass spectrometry in positive ion mode on an API4000 equipped with a Turbo Ionspray® interface. The calibration range was 10 to 10000 pmol/mL in mouse liver homogenate (50 to 50000 pmol/g of mouse liver).

CCOC(=O)OC(C)OP(=O)(N[C@@H](C)C(=O)OC(C)C)OC[C@H]1O[C@@H](n2cnc3c(OC)nc(N)nc32)[C@](C)(F)[C@@H]1O (single isomer, unassigned) [Compound 15]
Percent Remaining, SGF [1]: 97% | Percent Remaining, SIF [2]: 0% | Percent Remaining, HIS9 (1 hr) [3]: 76% | Huh-7 TP Cmax [4]: 198 pmol/mill cells | Ms 2′-F, 2′-MeGTP AUC [5]: 900 pmol · hr/g at 1 μmol/kg | Ms Plasma 2′-F, 2′-MeG AUC [5]: 130 pmol · hr/mL at 1 μmol/kg | Ms Plasma 2′-F, 2′-MeG Cmax [5]: 16 pmol/mL at 1 μmol/kg

CCOC(=O)OC(C)OP(=O)(N[C@@H](C)C(=O)OC(C)C)OC[C@H]1O[C@@H](n2cnc3c(OC)nc(N)nc32)[C@](C)(F)[C@@H]1O (single isomer, unassigned) [Compound 14]
Percent Remaining, SGF [1]: 91% | Percent Remaining, SIF [2]: 39% | Percent Remaining, HIS9 (1 hr) [3]: 53% | Huh-7 TP Cmax [4]: 410 pmol/mill cells | Ms 2′-F, 2′-MeGTP AUC [5]: 1900 pmol · hr/g at 1 μmol/kg | Ms Plasma 2′-F, 2′-MeG AUC [5]: 150 pmol · hr/mL at 1 μmol/kg | Ms Plasma 2′-F, 2′-MeG Cmax [5]: 14 pmol/mL at 1 μmol/kg
